Measurements taken from PMC8705693, “Roles of the Na^+/H^+ Exchanger Isoform 1 and Urokinase in Prostate Cancer Cell Migration and Invasion” (International Journal of Molecular Sciences, 2021).
“Also recorded” adds a separate entry of the source.

What was measured:
LNCaP = tested on: LNCaP; design: method as in PMID 9044824; settings: LNCaP xenografted SCID mice, high doses; cited from earlier work
NHE1 [1] = tested on: NHE1; design: method as in PMID 21544803; settings: cited from earlier work
DU 145 = tested on: DU 145; design: method as in PMID 9044824; settings: DU 145 xenografted SCID mice, high doses; cited from earlier work
DU 145 cells [2] = experiment: Anchorage-dependent colony formation; assay type: cell-based, human; settings: 10 µM, 8 days
Procedure: To examine anchorage-dependent colony formation, we used 60 mm polystyrene dishes that had been coated to introduce hydrophilic groups producing a standard growth surface (Sarstedt, Numbrecht, Germany). To measure anchorage-dependent colony growth, the cells were plated into in the 60 mm dishes at a density of 1000 cells per dish. They were grown in complete growth media. To examine the effects of various compounds, 2–30 µM of the indicated drugs were added to culture dishes. An equal volume of DMSO (vehicle) alone was added to otherwise-untreated controls. After growth for 8 days, colonies were fixed in ice-cold methanol; they were stained with 0.5% crystal violet in methanol and washed, and then left to air-dry. The colonies of > 50 cells/colony were imaged and counted. The number of […] colonies was normalized to the number of control colonies and presented as a percentage of control colonies formed.

NHE1 [3] = target: T1, NHE1 (Homo sapiens, UniProt P19634); experiment: Na+/H+ exchanger activity, recovery from acute acid load (BCECF); assay type: cell-based; settings: 10 µM
T1 construct: the activity of the NHE1 protein in DU 145 cells; host or cells: DU 145 human prostate cancer cells
T1 sequence (P19634 whole entry): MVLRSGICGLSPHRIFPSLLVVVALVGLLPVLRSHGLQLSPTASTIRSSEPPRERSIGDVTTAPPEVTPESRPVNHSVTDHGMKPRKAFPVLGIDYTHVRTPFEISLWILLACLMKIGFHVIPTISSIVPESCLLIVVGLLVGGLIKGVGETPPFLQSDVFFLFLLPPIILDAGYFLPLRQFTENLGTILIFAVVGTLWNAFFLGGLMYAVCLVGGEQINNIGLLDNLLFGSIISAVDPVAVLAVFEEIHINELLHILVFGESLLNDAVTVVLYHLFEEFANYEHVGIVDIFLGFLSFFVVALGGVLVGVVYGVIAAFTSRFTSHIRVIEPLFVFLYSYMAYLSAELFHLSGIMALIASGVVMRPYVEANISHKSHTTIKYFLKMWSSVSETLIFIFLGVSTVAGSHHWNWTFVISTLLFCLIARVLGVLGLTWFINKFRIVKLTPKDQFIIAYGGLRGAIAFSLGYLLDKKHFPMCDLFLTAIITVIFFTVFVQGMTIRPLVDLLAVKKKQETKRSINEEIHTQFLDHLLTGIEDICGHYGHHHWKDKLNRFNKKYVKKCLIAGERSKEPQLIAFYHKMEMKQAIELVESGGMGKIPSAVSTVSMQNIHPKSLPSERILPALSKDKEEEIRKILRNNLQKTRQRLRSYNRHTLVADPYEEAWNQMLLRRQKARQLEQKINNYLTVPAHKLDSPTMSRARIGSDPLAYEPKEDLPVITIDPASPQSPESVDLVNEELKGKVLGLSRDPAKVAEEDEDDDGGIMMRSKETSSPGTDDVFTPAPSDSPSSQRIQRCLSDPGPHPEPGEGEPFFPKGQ
Description: In the next series of experiments, we used NHE1 activity assays to examine the activity of wild-type DU 145 cells and the knockout cell line. […] For the wild type, it illustrates the initial pH, alkalinization caused by ammonium chloride, and the recovery from acidification caused by the removal of ammonium chloride. The recovery upon reintroduction of NaCl is illustrated for both wild-type and knockout cells (Figure 2A,B), and a summary of six experiments is shown in Figure 2E. For wild-type cells, the recovery was robust, at a rate of over 0.008 pH units/s. […] This may be due to either leakage out of the cell, or to the action of other proton transporters present in cells. […]
Figure 2 Na^+/H^+ exchanger activity in parental DU 145 cells, in NHE1-knockout cells (NHE1-KO), and in knockout cells that had NHE1 reintroduced (NHE1-RI). […] The intracellular pH was recorded in cells transiently acidified using ammonium chloride addition. […] (E) Bar graph showing a summary of the initial rate of recovery; this was measured relative to the wild-type protein and recorded as delta pH/s. n ≥ 6, mean +/− SE. […] The activity of NHE1 was calculated from the changes over the first 20 s of recovery from the acid load, and was expressed as ΔpH/s. […]
Intracellular pH was measured using 2′,7-bis(2-carboxyethyl)-5(6) carboxyfluorescein acetoxymethyl ester (BCECF-AM), in a similar manner to that described in [29]. […]

DU 145 cells [4] = experiment: Cell migration, wound-healing assay; assay type: cell-based, human
Procedure: Figure 4 Effects of NHE1-KO or NHE1 inhibition on cell migration examined in wild-type (WT) and NHE1-knockout (KO) DU 145 cells. The rate of closure of the induced gap was evaluated using the wound-healing assay, as described in the Section 4. (A) Examples of the effects of NHE1-KO on wound closure. Upper panel: example of WT DU 145 cells with gaps at 0 and 24 h. Middle panel: example of DU 145 NHE1 KO cells at 0 and 24 h. Lower panel: example of RI cell growth. (B) Summary of results; * indicates significant differences from the same group at 0 h, p < 0.05, n ≥ 6. (C,D) Effects of different concentrations of various NHE1/uPA inhibitors on migration (gap closure) of DU 145 cells. CT: control; EMD: EM87580; other compounds are as names. (C) Summary of the effects of 2 µM of various compounds on the migration of wild-type DU 145 cells. (D) Summary of the effects of 10 µM of various compounds on the migration of wild-type DU 145 cells (BB2-30F was used at 30 µM); * indicates significant differences from untreated control cells at p < 0.05.
Cell migration was studied using a wound-healing assay similar to that described in [13]. Briefly, cells were seeded in 12-well plates ([…]) the day before assay, and then grown to a confluent monolayer. A “scratch” was created in the cell monolayer with a p20 pipette tip in a straight line. The cells were washed twice with PBS to remove the debris, and the medium was changed to 2 mL of growth medium. To obtain the same field during image acquisition, three crosses were marked on the outside of each well as a reference. The scratch gaps above and below the crosses were measured. We acquired six images of the scratch for each well using a Leica DM IRB microscope (at 10× magnification). Arbitrary measurements of gap closure were quantified using Image-Pro Plus software. A minimum of six images/well and five measurements/image were acquired for each treatment; all treatments were repeated at least three times. Data shown are representative of the decrease in gap distance at 24 h, compared to the initial measurement at 0 h. […]

uPA = uPA (Homo sapiens, UniProt P00749); experiment: uPA activity assay; assay type: biochemical
Procedure: We next tested the efficacy of a new family of NHE inhibitors on the activity of the NHE1 protein in DU 145 cells. In order to do this, we used a double-pulse assay, in which there were two consecutive ammonium-chloride-induced acidifications. The rate of recovery in the second pulse in the presence of the inhibitor was measured relative to that of the first pulse in the absence of the inhibitor. In control experiments, we observed that the second pulse, in the absence of the inhibitor, was equivalent to that of the first (Figure 3A). […] A summary of the results is shown in Figure 3C–G, [32] and a summary of the IC50 values can be found in Table 1. The various compounds tested had differing potencies towards NHE1 activity. […] Figure 3C–G also show the inhibition of uPA activity for each compound on the same plots (red line), assayed as indicated in the Section 4. […] (Table 1).
Synthesis of NHE1/uPA inhibitors was as described previously, as was the determination of uPA activity, where each compound was described as the number in parentheses: BB2-50F (5), BB2-30F (26), AA1-111 (29), and AA1-135 (30).

NHE1 [5] = target: T1, NHE1; experiment: Na+/H+ exchanger activity, double ammonium chloride pulse assay in DU 145 cells; assay type: cell-based
Procedure: We next tested the efficacy of a new family of NHE inhibitors on the activity of the NHE1 protein in DU 145 cells. In order to do this, we used a double-pulse assay, in which there were two consecutive ammonium-chloride-induced acidifications. The rate of recovery in the second pulse in the presence of the inhibitor was measured relative to that of the first pulse in the absence of the inhibitor. In control experiments, we observed that the second pulse, in the absence of the inhibitor, was equivalent to that of the first (Figure 3A). […] A summary of the results is shown in Figure 3C–G, [32] and a summary of the IC50 values can be found in Table 1. […]
Figure 3 Characterization of the effects of pharmacological compounds on the activity of the Na^+/H^+ exchanger using the double-pulse assay. Na^+/H^+ exchanger activity was determined as described in Figure 2 and in the Section 4, using a dual ammonium chloride pulse assay. The rate of recovery in the first pulse, in the absence of the drug, was measured. […]
Intracellular pH was measured using 2′,7-bis(2-carboxyethyl)-5(6) carboxyfluorescein acetoxymethyl ester (BCECF-AM), in a similar manner to that described in [29]. […] Cells were loaded with BCECF and fluorescence was measured using a PTI Deltascan spectrofluorometer. NHE1 activity was measured after inducing an acute acid load using ammonium chloride. […]

| Structure (SMILES) | tumor growth (LNCaP) | inhibition of NHE1 (in words) (NHE1 [1]) | tumor growth (DU 145) | anchorage-dependent colony formation (DU 145 cells [2]) | NHE1 activity (initial rate of recovery) (NHE1 [3]; RI cells (NHE1 reintroduced into KO DU 145)) | NHE1 activity (initial rate of recovery) (NHE1 [3]; wild-type DU 145 cells) | cell migration (DU 145 cells [4]; 2 µM, DU 145) | cell migration (gap closure) (DU 145 cells [4]; 10 µM, 24 h, wild-type DU 145) | migration (gap closure) (DU 145 cells [4]; any of the groups, including wild-type and RI DU 145 cells) | inhibition of uPA activity (in words) (uPA) | uPA inhibition (in words) (uPA; 2 µM) | NHE1 inhibition (in words) (NHE1 [5]; 2 µM) | IC50 (NHE1 [5]; DU 145 cells, double-pulse assay, read-out: Potency (IC50) towards NHE1) [nM] |
| --- | --- | --- | --- | --- | --- | --- | --- | --- | --- | --- | --- | --- | --- |
| N=C(N)NC(=O)c1nc(Cl)c(N)nc1N [Amiloride] | inhibit | low μM inhibitor | inhibit | – | – | – | – | – | – | – | – | – | – |
| [H]/N=C(\N)NC(=O)c1cc(S(C)(=O)=O)c(S(C)(=O)=O)cc1C [EMD87580, rimeporide] | – | – | – | no effect | eliminated | eliminated | lack of effect | only very slight, non-significant effects | did not reduce migration | no inhibitory activity; also recorded: no effect on uPA | minimal inhibition of uPA | complete NHE1 inhibition | 450 |
